According to ChEMBL document CHEMBL1151792, “Development of novel tail-modified anandamide analogs” (Bioorg Med Chem Lett, 2008):

Columns and labels:
[1] = target: Cannabinoid receptor 1 (Rattus norvegicus, UniProt P20272); assay type: cell membranes, Brain, Membrane
Description: Displacement of [3H]CP-55940 from cannabinoid CB1 receptor in rat brain membrane in presence of phenylmethanesulfonyl fluoride

[2] = target: Cannabinoid receptor 2 (Mus musculus, UniProt P47936); assay: Displacement of [3H]CP-55940 from cannabinoid CB2 receptor in mouse spleen membrane; assay type: cell membranes
Sequence of Cannabinoid receptor 2 (P47936 whole entry): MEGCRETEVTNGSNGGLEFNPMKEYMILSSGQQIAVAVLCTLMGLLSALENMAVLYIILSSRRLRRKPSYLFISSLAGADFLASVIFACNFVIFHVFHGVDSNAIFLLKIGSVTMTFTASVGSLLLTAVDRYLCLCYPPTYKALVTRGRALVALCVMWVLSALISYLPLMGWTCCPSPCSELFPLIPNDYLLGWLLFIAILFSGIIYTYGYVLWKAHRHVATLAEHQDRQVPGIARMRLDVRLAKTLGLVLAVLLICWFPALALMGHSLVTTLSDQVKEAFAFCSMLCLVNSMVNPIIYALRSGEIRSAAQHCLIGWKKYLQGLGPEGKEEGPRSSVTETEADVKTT

Sequence of Cannabinoid receptor 1 (P20272 whole entry): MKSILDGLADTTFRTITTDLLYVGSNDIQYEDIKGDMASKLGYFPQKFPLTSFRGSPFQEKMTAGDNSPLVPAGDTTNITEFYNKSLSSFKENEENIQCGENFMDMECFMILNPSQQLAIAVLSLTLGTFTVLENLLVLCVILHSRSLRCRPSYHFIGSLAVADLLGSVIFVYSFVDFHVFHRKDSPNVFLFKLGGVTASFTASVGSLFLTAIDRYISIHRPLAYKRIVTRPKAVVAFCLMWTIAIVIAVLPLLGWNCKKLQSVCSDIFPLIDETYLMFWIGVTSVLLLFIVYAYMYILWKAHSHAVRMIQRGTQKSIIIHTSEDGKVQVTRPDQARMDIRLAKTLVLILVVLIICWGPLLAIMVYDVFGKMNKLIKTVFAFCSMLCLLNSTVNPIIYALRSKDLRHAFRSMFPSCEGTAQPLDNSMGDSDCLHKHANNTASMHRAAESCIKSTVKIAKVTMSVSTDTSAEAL

SMILES: C[C@H](CO)NC(=O)CCC/C=C\C/C=C\C/C=C\C/C=C\CCCCCc1ccccc1
- Ki [1]: 76.6 nM
- Ki [2]: 241 nM

SMILES: C[C@H](CO)NC(=O)CCC/C=C\C/C=C\C/C=C\C/C=C\CCCCc1ccccc1
- Ki [1]: 13.3 nM
- Ki [2]: 1120 nM

SMILES: C[C@H](CO)NC(=O)CCC/C=C\C/C=C\C/C=C\C/C=C\CCCCc1cccc(Cl)c1
- Ki [1]: 89.4 nM
- Ki [2]: 605 nM

SMILES: C[C@H](CO)NC(=O)CCC/C=C\C/C=C\C/C=C\C/C=C\CCCCc1cccc(Br)c1
- Ki [1]: 95.3 nM
- Ki [2]: 1050 nM

SMILES: C[C@H](CO)NC(=O)CCC/C=C\C/C=C\C/C=C\C/C=C\CCCCc1cccc(I)c1
- Ki [1]: 533 nM
- Ki [2]: 1560 nM

SMILES: C[C@H](CO)NC(=O)CCC/C=C\C/C=C\C/C=C\C/C=C\CCCCc1ccoc1
- Ki [1]: 12 nM
- Ki [2]: 1030 nM

SMILES: C[C@H](CO)NC(=O)CCC/C=C\C/C=C\C/C=C\C/C=C\CCCCCc1ccoc1
- Ki [1]: 170 nM
- Ki [2]: 869 nM

SMILES: C[C@H](CO)NC(=O)CCC/C=C\C/C=C\C/C=C\C/C=C\CCCCCc1ccco1
- Ki [1]: 561 nM
- Ki [2]: 3260 nM

SMILES: C[C@H](CO)NC(=O)CCC/C=C\C/C=C\C/C=C\C/C=C\Cc1ccccc1
- Ki [1]: 349 nM
- Ki [2]: 826 nM

SMILES: C[C@H](CO)NC(=O)CCC/C=C\C/C=C\C/C=C\C/C=C\CCc1ccccc1
- Ki [1]: 241 nM
- Ki [2]: 335 nM

SMILES: C[C@H](CO)NC(=O)CCC/C=C\C/C=C\C/C=C\C/C=C\CCCCc1ccc(Br)cc1
- Ki [1]: 8.9 nM
- Ki [2]: 250 nM

SMILES: C[C@H](CO)NC(=O)CCC/C=C\C/C=C\C/C=C\C/C=C\CCCCc1cccc(C(F)(F)F)c1
- Ki [1]: 284 nM
- Ki [2]: 2040 nM

SMILES: Cc1cccc(CCCC/C=C\C/C=C\C/C=C\C/C=C\CCCC(=O)N[C@H](C)CO)c1
- Ki [1]: 344 nM
- Ki [2]: 840 nM

SMILES: C[C@H](CO)NC(=O)CCC/C=C\C/C=C\C/C=C\C/C=C\CCCCc1ccccc1Br
- Ki [1]: 170 nM

SMILES: C[C@H](CO)NC(=O)CCC/C=C\C/C=C\C/C=C\C/C=C\CCCCc1cccc2ccccc12
- Ki [1]: 678 nM
- Ki [2]: 4000 nM

SMILES: C[C@H](CO)NC(=O)CCC/C=C\C/C=C\C/C=C\C/C=C\CCCCc1ccco1
- Ki [1]: 325 nM
- Ki [2]: 750 nM

SMILES: C[C@H](CO)NC(=O)CCC/C=C\C/C=C\C/C=C\C/C=C\CCCc1ccccc1
- Ki [1]: 69.2 nM
- Ki [2]: 534 nM
